# Data: ChEMBL document CHEMBL1201862, “PubChem BioAssay data set” (2004)
# Calls of active or inactive are those of the source.
# How the values were obtained:
# Cytochrome P450 2C19 = Cytochrome P450 2C19 (Homo sapiens, UniProt P33261); assay: Cytochrome panel assay with activity outcomes. Panel member name: p450-cyp2c19 Compounds with AC50 equal or less than 10 uM are considered active; type: functional
# [1] = Trypanosoma cruzi growth suppression in host cells – NIH3T3 host cells, beta-gal luminescence, confirmation (AID 2044); type: functional, cell-based;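 also: intracellular parasites grown in NIH/3T3 mouse fibroblasts as host cells; luminescent beta-galactosidase reporter signal from transgenic T. cruzi replicating inside host cells; inhibitors lower the luminescence signal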
# [2] = NIH3T3 cell viability loss – ATP luminescence, mouse fibroblasts, counter-screen, dose response (AID 2010); type: functional, cell-based;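 also: cells exposed to compound for about 90 hours before reading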
# Cytochrome P450 3A4 = Cytochrome P450 3A4 (Homo sapiens, UniProt P08684);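 also: CYP3A4 tested as one member of a cytochrome P450 panel screen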
# Cytochrome P450 3A4, sequence (P08684 whole entry): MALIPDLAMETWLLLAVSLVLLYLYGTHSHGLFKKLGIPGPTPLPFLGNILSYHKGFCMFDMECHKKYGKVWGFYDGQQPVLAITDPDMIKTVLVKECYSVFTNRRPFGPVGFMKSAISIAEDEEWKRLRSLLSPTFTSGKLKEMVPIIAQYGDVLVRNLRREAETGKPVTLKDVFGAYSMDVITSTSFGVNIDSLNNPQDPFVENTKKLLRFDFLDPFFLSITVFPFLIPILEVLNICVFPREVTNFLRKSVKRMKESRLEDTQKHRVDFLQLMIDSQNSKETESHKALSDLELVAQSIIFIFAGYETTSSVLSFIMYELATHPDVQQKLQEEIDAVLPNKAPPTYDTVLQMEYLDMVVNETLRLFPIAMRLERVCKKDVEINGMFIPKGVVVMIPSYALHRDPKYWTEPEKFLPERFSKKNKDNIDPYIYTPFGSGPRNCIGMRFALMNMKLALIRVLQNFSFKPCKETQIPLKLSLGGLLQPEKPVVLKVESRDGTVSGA
# Cytochrome P450 1A2 = molecular target: T1, Cytochrome P450 1A2 (Homo sapiens, UniProt P05177);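 also: PubChem cytochrome P450 panel assay, CYP1A2 panel member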
# T1 sequence (P05177 whole entry): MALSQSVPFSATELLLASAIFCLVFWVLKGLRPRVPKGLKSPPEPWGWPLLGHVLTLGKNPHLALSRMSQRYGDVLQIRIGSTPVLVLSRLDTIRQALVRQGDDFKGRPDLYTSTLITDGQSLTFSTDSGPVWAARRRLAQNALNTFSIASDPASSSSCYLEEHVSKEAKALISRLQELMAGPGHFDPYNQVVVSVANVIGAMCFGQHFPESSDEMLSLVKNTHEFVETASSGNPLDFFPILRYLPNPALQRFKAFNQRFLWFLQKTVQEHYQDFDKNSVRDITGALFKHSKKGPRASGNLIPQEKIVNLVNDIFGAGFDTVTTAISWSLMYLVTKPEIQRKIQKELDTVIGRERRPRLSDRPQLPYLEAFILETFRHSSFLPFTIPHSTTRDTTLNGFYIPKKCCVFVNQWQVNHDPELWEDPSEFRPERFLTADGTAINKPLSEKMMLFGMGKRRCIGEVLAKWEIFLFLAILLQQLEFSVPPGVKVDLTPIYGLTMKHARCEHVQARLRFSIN
# [3] = Luminescence Cell-Based Dose Retest to Confirm Inhibitors of Cancer Stem Cells. [Related pubchem assays (depositor defined):AID2717, AID2721]; type: functional; conditions: Homo sapiens
# Streptococcus = assay: GAS UMAA2166 growth inhibition – luminescence, BacTiterGlo, counter-screen for streptokinase expression inhibitor project, dose response (AID 1915); type: functional, organism-based;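 also: potency for reduction of bacterial viability or growth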
# [4] = test system: Streptococcus sp. 'group A'; assay: Streptococcus pyogenes SK(-)GAS viability under kanamycin – luminescence, BacTiterGlo, confirmation, counter-screen for streptokinase expression inhibitor project, dose response (AID 1900); type: functional, organism-based
# Cytochrome P450 2C19, sequence (P33261 whole entry): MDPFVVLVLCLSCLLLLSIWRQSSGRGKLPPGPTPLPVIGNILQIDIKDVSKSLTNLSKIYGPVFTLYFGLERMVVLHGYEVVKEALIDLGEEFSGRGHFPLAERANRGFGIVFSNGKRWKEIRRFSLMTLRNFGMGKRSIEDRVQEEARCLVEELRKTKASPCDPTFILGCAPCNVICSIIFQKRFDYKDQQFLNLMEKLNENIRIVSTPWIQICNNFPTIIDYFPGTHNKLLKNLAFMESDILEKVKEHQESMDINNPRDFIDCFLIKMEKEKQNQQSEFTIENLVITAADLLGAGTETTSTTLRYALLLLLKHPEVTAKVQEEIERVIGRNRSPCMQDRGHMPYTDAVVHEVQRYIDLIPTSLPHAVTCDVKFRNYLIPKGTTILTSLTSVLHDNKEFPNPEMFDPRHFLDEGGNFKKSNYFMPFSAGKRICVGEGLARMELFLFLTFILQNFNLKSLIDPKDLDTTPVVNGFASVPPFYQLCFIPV
smiles,measurement,setting,value
CCn1c(SCC(=O)Nc2sc3c(c2C#N)CCC(C(C)(C)C)C3)nnc1-c1ccco1 (stereo not drawn),AC50,Cytochrome P450 2C19; read-out: AC50,20 µM (inconclusive)
Cc1cccc(CNc2ncnc3ccc(-c4cccnc4)cc23)c1,AC50,Cytochrome P450 2C19; read-out: AC50,39.8 µM (inconclusive)
COc1cccc(CC2(CO)CCCN(Cc3ccc(-c4ccco4)cc3)C2)c1 (stereo not drawn),EC50,[1],0.621 µM (active)
same,EC50,[2],> 60 µM (not active)
CC1CCCC(NC(=O)C2CCN(S(=O)(=O)N3CCOCC3)CC2)C1C (stereo not drawn),AC50,Cytochrome P450 3A4,11.2 µM (inconclusive)
O=C(Nc1cc(Sc2nc3ccccc3s2)cc([N+](=O)[O-])c1)c1ccccc1,EC50,[1],1.42 µM (active)
same,EC50,[2],> 60 µM (not active)
Cc1nc(NC(=O)c2ccccc2)sc1-c1csc(NCCc2ccccc2)n1,EC50,[1],2.25 µM (active)
same,EC50,[2],> 60 µM (not active)
N=C(C[C@@H](O)COc1ccccc1-c1ccccc1)N1CCCCC1,AC50,Cytochrome P450 1A2,39.8 µM (inconclusive)
N#Cc1cccc(NC(=O)N2CC3(CCN(C(=O)c4ccco4)CC3)C2)c1,AC50,Cytochrome P450 2C19; read-out: AC50,2 µM (inconclusive)
same,AC50,Cytochrome P450 1A2,25.1 µM (inconclusive)
CN(Cc1ccco1)c1ccnc(-c2cccc(NS(C)(=O)=O)c2)n1,AC50,Cytochrome P450 2C19; read-out: AC50,25.1 µM (inconclusive)
CCN(CC)S(=O)(=O)c1ccc2c(c1)c(=O)c(C(=O)NCCN(C)CCc1ccccc1)cn2C,EC50,[1],0.991 µM (active)
same,EC50,[2],> 60 µM (not active)
C[C@@H]1c2ccccc2CN1CC1=NCCN1,AC50,Cytochrome P450 1A2,31.6 µM (inconclusive)
same,AC50,Cytochrome P450 3A4,31.6 µM (inconclusive)
CN1CCN(C(=O)COc2ccc(S(=O)(=O)Nc3ccc(F)cc3)cc2)CC1,EC50,[1],0.142 µM (active)
same,EC50,[2],> 60 µM (not active)
O[C@@H](c1cc(-c2ccc(Cl)cc2)nc2ccccc12)[C@@H]1CCCCN1,AC50,Cytochrome P450 2C19; read-out: AC50,6.31 µM (inconclusive)
Cc1nnc(-c2cnn(-c3ccccc3)c2N)n1Cc1ccc(F)cc1,AC50,Cytochrome P450 3A4,25.1 µM (inconclusive)
CN1CCC(N(C)C(=O)c2ccccc2Nc2ccc(SC(F)F)cc2)CC1,EC50,[1],0.384 µM (active)
same,EC50,[2],> 60 µM (not active)
COc1ccc(Cl)cc1C(=O)Nn1cnc2ccccc2c1=O,AC50,Cytochrome P450 2C19; read-out: AC50,11.2 µM (inconclusive)
same,AC50,Cytochrome P450 3A4,25.1 µM (inconclusive)
CN1CCN(CC(O)COCCOc2ccc(Br)cc2)CC1 (stereo not drawn),EC50,[1],0.542 µM (active)
same,EC50,[2],> 60 µM (not active)
O=C(c1ccc2c(c1)OCO2)C1CCCN(C2CCN(CCc3ccccc3)CC2)C1 (stereo not drawn),EC50,[1],1.72 µM (active)
same,EC50,[2],> 60 µM (not active)
Cn1cccc1C(=O)N1CCC[C@@]2(CCN(c3ccccn3)C2)C1,AC50,Cytochrome P450 2C19; read-out: AC50,39.8 µM (inconclusive)
same,AC50,Cytochrome P450 1A2,31.6 µM (inconclusive)
same,AC50,Cytochrome P450 3A4,12.6 µM (inconclusive)
Cc1ccc(-n2cc(CN(C)Cc3ncc[nH]3)c(-c3cccc(C)c3)n2)cc1,EC50,[1],1.16 µM (active)
same,EC50,[2],> 60 µM (not active)
CC(=O)Nc1ccc(S(=O)(=O)NC(CC(=O)NCCCN2CCOCC2)C(C)C)cc1 (stereo not drawn),AC50,Cytochrome P450 3A4,31.6 µM (inconclusive)
CC(C)(C)C1CCC(OCC(O)CN2CCN(Cc3ccccc3)CC2)CC1 (stereo not drawn),EC50,[1],1.15 µM (active)
same,EC50,[2],> 60 µM (not active)
O=c1c(-c2cccc(Cl)c2)nc2cncnc2n1Cc1ccc(F)cc1,AC50,Cytochrome P450 3A4,15.8 µM (inconclusive)
Cc1nc2cnc(Oc3cccc(Cl)c3)nc2n(CCc2ccccc2)c1=O,AC50,Cytochrome P450 2C19; read-out: AC50,7.94 µM (inconclusive)
CCCOc1ccc(/C=C/C(=O)Nc2ccc([N+](=O)[O-])cc2C)cc1OC,AC50,Cytochrome P450 3A4,2.82 µM (inconclusive)
NC(=O)CC(NC(=O)c1ccc(Br)cc1)c1ccc(NCc2ccc(F)cc2)c([N+](=O)[O-])c1 (stereo not drawn),AC50,[3],3.96 µM (active)
C[C@@H]1/C=C\CC(=O)OC[C@H](C)C(=O)N[C@@H](C)C(=O)OC1,AC50,Cytochrome P450 2C19,inconclusive
CC(=O)NCCNc1ncncc1-c1ccc(N(C)C)cc1,AC50,Cytochrome P450 2C19; read-out: AC50,20 µM (inconclusive)
COc1ccc(N=C(S)NC(NC(=O)c2cccc3ccccc23)C(Cl)(Cl)Cl)c([N+](=O)[O-])c1 (stereo not drawn),EC50,[1],2.25 µM (active)
same,EC50,[2],> 30 µM (not active)
Cc1nn(-c2ccc(F)cc2)c2nc(N)c(C#N)c(-c3ccc(O)c(O)c3)c12,EC50,[1],2.04 µM (active)
same,EC50,[2],15.6 µM (active)
Cn1c(=O)c2c(nc(C(=N)SCC(=O)O)n2C)n(C)c1=O,AC50,Cytochrome P450 2C19,inconclusive
COc1ccc(CCn2c(SCCN3CCCCC3)nc3ccccc3c2=O)cc1OC,EC50,[1],0.936 µM (active)
same,EC50,[2],> 60 µM (not active)
O=S(=O)(NCc1cn2ccsc2n1)c1ccc(Oc2ccccc2)cc1,AC50,Cytochrome P450 1A2,5.01 µM (inconclusive)
CC(C)(C)c1ccc(C(=O)Nc2ccc(N3CCOCC3)cc2)cc1,AC50,[3],4.04 µM (active)
N#C/C(=C(/O)c1ccc2c(c1)OCO2)c1nc2cc(C(F)(F)F)ccc2s1,EC50,Streptococcus,4.33 µM (active)
same,EC50,[4],2.89 µM (active)
COCC(=O)Oc1c(S(=O)(=O)c2ccc(C)cc2)c(C)nn1-c1ccccc1,AC50,Cytochrome P450 2C19; read-out: AC50,28.2 µM (inconclusive)
same,AC50,Cytochrome P450 1A2,6.31 µM (inconclusive)
Cc1nc2c(-c3ccccc3)cnn2c(O)c1Cc1ccccc1,EC50,[1],2.22 µM (active)
same,EC50,[2],14.6 µM (active)
COc1ccc(Oc2nc3ccccc3nc2C(F)(F)F)cc1,AC50,Cytochrome P450 2C19; read-out: AC50,3.16 µM (inconclusive)
Clc1ccccc1-c1nc(NC2CCNCC2)c2ccccc2n1,AC50,Cytochrome P450 1A2,20 µM (inconclusive)
Cn1cccc1C(=O)N1CCC2(CCCN(Cc3ccncc3)C2)CC1,AC50,Cytochrome P450 2C19; read-out: AC50,15.8 µM (inconclusive)
same,AC50,Cytochrome P450 1A2,15.8 µM (inconclusive)
same,AC50,Cytochrome P450 3A4,3.98 µM (inconclusive)
O[C@@H]1[C@@H](OCc2ccccc2)OC[C@H](O)[C@@H]1O,AC50,Cytochrome P450 2C19,inconclusive
Cc1cc(C)cc(Oc2ncnc3c2ncn3Cc2c(Cl)cccc2Cl)c1,EC50,[1],1.95 µM (active)
same,EC50,[2],> 60 µM (not active)
c1csc(CNCCCN2CCOCC2)c1,AC50,Cytochrome P450 2C19; read-out: AC50,14.1 µM (inconclusive)
CN1CCN(Cc2nc3cccc4c3c([n+]2[O-])-c2ccccc2-4)CC1,AC50,Cytochrome P450 3A4,3.98 µM (inconclusive)
CC(C)[C@@H]1CN[C@H](C(=O)O)[C@@H]1CC(=O)O,AC50,Cytochrome P450 1A2,39.8 µM (inconclusive)
O=C(NC1CCCN(CCc2ccccc2)C1)C1CCCC1 (stereo not drawn),EC50,[1],1.3 µM (active)
same,EC50,[2],> 60 µM (not active)
COCC(=O)N1CCC2(CCN(Cc3ccncc3)CC2)CC1,AC50,Cytochrome P450 3A4,15.8 µM (inconclusive)
O[C@@H]1[C@@H]2c3cc4c(cc3CN3CCC(=C[C@@H]1O)[C@H]23)OCO4,AC50,Cytochrome P450 1A2,15.8 µM (inconclusive)
O=C(O)C(Cc1ccccc1)Cc1ccccc1,AC50,Cytochrome P450 1A2,0.00501 µM (inconclusive)
CSc1nc(C)cc(OCC(=O)N/N=C/c2ccccc2O)n1,AC50,[3],3.38 µM (active)
O=C(CCn1cnc(-c2ccccc2)c1-c1ccccc1)N/N=C/c1ccccc1O,EC50,Streptococcus,2.13 µM (active)
same,EC50,[4],0.47 µM (active)
C=CCN1C[C@H](C)N([C@H](c2ccc(C(=O)N(CC)CC)cc2)c2cccc(O)c2)C[C@H]1C,AC50,Cytochrome P450 1A2,39.8 µM (inconclusive)
COc1ccccc1/C=C/C=N/N1CCN(Cc2cccc3ccccc23)CC1,AC50,Cytochrome P450 3A4,12.6 µM (inconclusive)
CC(=O)Nc1ccc(/C(C)=N/Nc2nc(Nc3ccccc3)nc(N3CCOCC3)n2)cc1,EC50,[1],0.345 µM (active)
same,EC50,[2],50.7 µM (active)
O=C(N/N=C/c1cc([N+](=O)[O-])ccc1O)c1c[nH]c2ccccc12,AC50,[3],6.85 µM (active)
CC(C)CC(=O)O/N=C1\C(=O)N(Cc2ccc(Cl)cc2)c2ccc([N+](=O)[O-])cc21,EC50,[1],4.6 µM (active)
COc1ccc(/C=N\N=C(N)N)cc1,EC50,[1],0.854 µM (active)
same,EC50,[2],> 60 µM (not active)
CN(C)C(=N)NCCC[C@H](N)C(=O)O,AC50,Cytochrome P450 2C19,inconclusive
CCOC(=O)Nc1ccc2c(c1)N(C(=O)CCN1CCOCC1)c1ccccc1S2 [MORICIZINE],EC50,[1],5.85 µM (active)
same,EC50,[2],> 60 µM (not active)
